These results are taken from publication PMC12841663, “Antiprotozoal Potential of Cultivated Geranium macrorrhizum Against Giardia duodenalis, Trichomonas gallinae and Leishmania infantum” (International Journal of Molecular Sciences, 2026).

Entries after “also recorded” stand apart in the source; their conditions may differ.

Test [1] has as its system L. infantum promastigotes. The test can be described thus: Morphological evaluation by light microscopy (Diff-Quik), L. infantum. The test is classed as cell-based, Leishmania infantum. The note with it: germacrone 100 µg/mL. The method, then:
L. infantum, T. gallinae and G. duodenalis were studied at 0, and 48 h after treatment with germacrone (100 µg/mL), and controls (DMSO 1%, metronidazole at 10 µg/mL for T. gallinae and G. duodenalis and amphotericin B at 1 µg/mL for L. infantum).
For L. infantum and T. gallinae, cultures in the exponential growth phase (10^7 promastigotes/mL and 5 × 10^5 trophozoites/mL, respectively) were treated in 96-well microplates. At each time point, quadruplicates were assigned per condition: growth control, germacrone, and the corresponding positive control (metronidazole or amphotericin B). For microscopy, quadruplicate wells corresponding to the same condition/time point were pooled prior to centrifugation to obtain sufficient biomass and a representative pellet for smear preparation. Pooled samples per condition/time point were centrifuged, resuspended in FBS and spread onto microscope slides. Once dried, samples were fixed and stained with Diff-Quik (Medion Diagnostic AG, Düdingen, Switzerland) following the manufacturer’s instructions. Additionally, three wells per condition (triplicates) were used for the MTT assay, with absorbance measured by spectrophotometry after 48 h.
Morphological changes were analyzed using light microscopy. Experiments were performed as independent biological replicates on different plates, and one Diff-Quik stained smear was obtained per condition and time point per biological replicate. For morphometric analysis, a total of 30 trophozoites per condition and time point were measured across the independent biological replicates and were selected by consecutive sampling during a predefined serpentine (zig-zag) scan across the preparation. Up to two eligible trophozoites per field (intact, well-focused and non-overlapping) were measured in sequential fields until n = 30 was reached, avoiding subjective selection of “representative” cells. Overlapping, partially visible, out-of-focus, edge-of-field, or debris-obscured trophozoites were excluded a priori. Trophozoites were photographed using a researcher’s mobile phone mounted to the microscope ocular. Calibration was performed at the same magnification using a stage micrometre and applied in ImageJ v. 1.54d. One Diff-Quik stained smear was obtained per condition/time point per biological replicate Cell length, cell width, cell surface, nuclear length, nuclear width, axoneme (only Giardia), and length of axostyle (only T. gallinae) were measured with ImageJ software, and the data were recorded in an Excel database for statistical analysis.
The Shapiro–Wilk test was used to assess the normality of the morphological variables. When data followed a normal distribution, Student’s t-test was applied; otherwise, non-parametric tests, such as the Mann–Whitney U test, was used. Values of p < 0.05 were considered significant. For the morphological analysis, the mean, standard deviation, median, and interquartile range were calculated using SPSS version 20 (IBM Corp., Armonk, NY, USA).

The subject of another test is T. gallinae trophozoites. The test is described as follows: Morphological evaluation by light microscopy (Diff-Quik), T. gallinae. It is filed as cell-based, Trichomonas gallinae. The note with it: germacrone 100 µg/mL. The source says:
At each time point, quadruplicates were assigned per condition: growth control, germacrone, and the corresponding positive control (metronidazole or amphotericin B). For microscopy, quadruplicate wells corresponding to the same condition/time point were pooled prior to centrifugation to obtain sufficient biomass and a representative pellet for smear preparation. Pooled samples per condition/time point were centrifuged, resuspended in FBS and spread onto microscope slides. Once dried, samples were fixed and stained with Diff-Quik (Medion Diagnostic AG, […], Switzerland) following the manufacturer's instructions. Additionally, three wells per condition (triplicates) were used for the MTT assay, with absorbance measured by spectrophotometry after 48 h. Morphological changes were analyzed using light microscopy. Experiments were performed as independent biological replicates on different plates, and one Diff-Quik stained smear was obtained per condition and time point per biological replicate. For morphometric analysis, a total of 30 trophozoites per condition and time point were measured across the independent biological replicates and were selected by consecutive sampling during a predefined serpentine (zig-zag) scan across the preparation. Up to two eligible trophozoites per field (intact, well-focused and non-overlapping) were measured in sequential fields until n = 30 was reached, avoiding subjective selection of “representative” cells. Overlapping, partially visible, out-of-focus, edge-of-field, or debris-obscured trophozoites were excluded a priori. Trophozoites were photographed using a researcher's mobile phone mounted to the microscope ocular. Calibration was performed at the same magnification using a stage micrometre and applied in ImageJ v. 1.54d. One Diff-Quik stained smear was obtained per condition/time point per biological replicate Cell length, cell width, cell surface, nuclear length, nuclear width, axoneme (only Giardia), and length of axostyle (only T. gallinae) were measured with ImageJ software, and the data were recorded in an Excel database for statistical analysis. The Shapiro-Wilk test was used to assess the normality of the morphological variables. When data followed a normal distribution, Student's t-test was applied; otherwise, non-parametric tests, such as the Mann-Whitney U test, was used. Values of p < 0.05 were considered significant. For the morphological analysis, the mean, standard deviation, median, and interquartile range were calculated using SPSS version 20 (IBM Corp., Armonk, NY, USA).

Where [2] appears, read: metronidazole 10 µg/mL, 0.5 and 48 h, control DMSO 1%.

For `CC(C)=C1C/C=C(\C)CC/C=C(\C)CC1=O` [Compound 2, germacrone], in test [1] (0.5 and 48 h, control DMSO 1%), the “cell length vs control” value is on record as “initial increase at 0.5 h but subsequently decreased at 48 h”; the “cell surface area vs control” value is given as “transiently increased at 0.5 h with no significant changes detected at 48 h”; the “cell width vs control” value was “increased significantly at both 0.5 and 48 h”. Further, the “morphological changes (light microscopy)” value in test [1] (48 h of exposure, Diff-Quik) is recorded as “less pronounced”. In addition, in the test on T. gallinae trophozoites (setting [2]), the “axostyle length vs control” value is reported as “decreased at 0.5 h; also recorded: after 48 h, it increased”; the “cell length vs control” value was “increase after 48 h”; the “cell surface area vs control” value was “decreased transiently at 0.5 h but increased at 48 h”; the “cell width vs control” value was “significant decrease exclusively in germacrone-treated parasites compared to the control at 0.5 h”. In the test on T. gallinae trophozoites (setting [2]), the “nuclear length vs control” value is reported as “increased upon germacrone exposure” and the “nuclear width vs control” value is recorded as “diminished at 0.5 h; also recorded: By 48 h, nuclear width increased”. Besides, the “morphological changes (light microscopy)” value in the test on T. gallinae trophozoites (48 h of exposure, Diff-Quik) was “elongation of the cytoplasm and the nucleus”.
